# Laboratory results from patent US8680094B2, “1, 4-benzoxazine compounds and derivatives thereof as therapeutic drugs for the treatment of neurodegenerative conditions” (Board of Regents, The University of Texas System, priority 2008, dated 2014).
# Several values for one entry are separate records, joined by “and”; a condition that tells them apart may be missing. Identical values can stand only once.
# Experiments:
# [1] = system: cerebellar granule neurons; test: LK-induced death of cultured cerebellar granule neurons, viability by DAPI staining; assay type: cell-based, rat; conditions: for neuroprotection against LK-induced neuronal death, in words: overall over 1, 5 and 25 μM; for protection at doses lower than 1 μM compared with 1 μM: 0.5, 0.25 and 0.1 μM
# Protocol: Culturing and treatments of cerebellar granule neurons: Granule neuron cultures were obtained from dissociated cerebella of 6-7 day old Wistar rats as described previously (D'Mello et al., 1993). Cells were plated in Basal Eagle's Medium (BME) supplemented with 10% fetal calf serum (FCS), 25 mM KCl, 2 mM glutamine (Invitrogen), and 100 μg/ml gentamycin in poly-L-lysine coated 24-well dishes at a density 1×10^6 cells/well. Cytosine arabinofuranoside (10 μM) was added to the culture medium 18-22 h after plating to prevent replication of nonneuronal cells. Previous immunocytochemical analyses by our lab and other investigators have shown that these cultures have high purity containing over 95% granule neurons (Thangnipon et al., 2003; Kingsbury et al., 2005).
# The neuronal cultures were maintained for 7-8 days prior to treatment. For treatment, the cells were rinsed once and then maintained in low K+ medium (serum-free BME medium; referred to as LK), or in the case of control cultures, in high K+ medium (serum-free BME medium supplemented with 20 mM KCl; referred to as HK). For treatments, the chemical compounds (dissolved in dimethylsulfoxide) were added directly to LK medium at the time of the switch from HK at concentrations of 1, 5, or 25 μM. Viability was assessed 24 hours by 4′,6′-diamidino-2-phenylindole hydrochloride (DAPI) staining (see below). Each compound was tested in duplicate (at each of the concentrations) and the experiment repeated at least 3 times.
# The viability status of neuronal cultures treated with HK, LK, or LK medium supplemented with various compounds was evaluated by phase contrast microscopy and quantified by staining cell nuclei with DAPI as previously described (Yalcin et al., 2003; Morrison et al., 2006; Majzadeh et al., 2007)). Briefly, the cells were fixed in 4% paraformaldehyde for 20 min at 4° C. After washing in phosphate buffered saline, diamidino-2-phenylindole hydrochloride (DAPI; 1 μg/ml in phosphate buffered saline) was added for 15 min at room-temperature and viewed under ultraviolet light (260 nm). Cells with condensed or fragmented nuclei were scored as dead. Viability has been expressed as percent of control cultures, which were switched to HK medium). Statistical analysis was performed using an unpaired, two-tailed Student's T test, compared to mean neuronal survival of control cultures receiving LK treatment.
# When cultured cerebellar granule neurons are switched from HK to LK medium about 50% of the cells underwent apoptosis within 24 h (D'Mello et al., 1993). The inventors utilized this widely used and recognized model to test a total of 20 different 1,4-benzoxazine derivatives for their ability to protect against LK-induced neuronal death. Each compound was tested at 3 different doses—1 μM, 5 μM and 25 μM and viability quantified by DAPI-staining. The highest does was included to test for possible toxicity effects of the compounds. Key results were confirmed using TUNEL staining, another reliable assay of apoptosis (FIG. 1). As shown in Table 1 and FIG. 1, the present invention identifies several compounds with significant neuroprotective effect. Two of the most protective compounds are HSB-13 and HSB-22, both with Ar=3′,5′-dibromo-4′-hydroxyphenyl (FIG. 1). […] Protection with this compound is lower than that observed with HSB-13 and HSB-22 at the two lower doses. […] To examine whether a higher level of protection could be observed at doses lower than 1 μM, the analyses of these compounds was extended to doses of 0.5, 0.25, and 0.1 μM.
# When cultured cerebellar granule neurons are switched to LK medium, about 50% of the cells undergo apoptosis within 24 h. In this study, a total of 20 different 1,4-benzoxazine derivatives of the structure shown in FIG. 1 were tested for their ability to protect against LK-induced death of cerebellar granule neurons. Each compound was tested at 3 different doses —1 μM, 5 μM and 25 μM. […]
# GSK3β = GSK3β (Homo sapiens, UniProt P49841); conditions: stated for the reference compound, no value; cited from earlier work
# cultured neurons = conditions: Chin et al., 2004, cited from earlier work
# [2] = system: 3-NP-induced mouse model of Huntington's disease; conditions: earlier work (Chin et al., 2004); cited from earlier work
# [3] = Table 1, 1 μM in LK medium, 24 h, % of survival in control cultures in HK medium, LK alone 48%
# [4] = Table 1, 5 μM in LK medium, 24 h, % of survival in control cultures in HK medium, LK alone 48%
# [5] = Table 1, 25 μM in LK medium, 24 h, % of survival in control cultures in HK medium, LK alone 48%
# [6] = Table 4, 1 μM in LK medium, % of survival in HK control cultures, LK alone 48.16±8.44%
# [7] = Table 4, 5 μM in LK medium, % of survival in HK control cultures, LK alone 48.16±8.44%
# [8] = Table 4, 25 μM in LK medium, % of survival in HK control cultures, LK alone 48.16±8.44%
# Sequence of GSK3β (P49841 whole entry, species assumed): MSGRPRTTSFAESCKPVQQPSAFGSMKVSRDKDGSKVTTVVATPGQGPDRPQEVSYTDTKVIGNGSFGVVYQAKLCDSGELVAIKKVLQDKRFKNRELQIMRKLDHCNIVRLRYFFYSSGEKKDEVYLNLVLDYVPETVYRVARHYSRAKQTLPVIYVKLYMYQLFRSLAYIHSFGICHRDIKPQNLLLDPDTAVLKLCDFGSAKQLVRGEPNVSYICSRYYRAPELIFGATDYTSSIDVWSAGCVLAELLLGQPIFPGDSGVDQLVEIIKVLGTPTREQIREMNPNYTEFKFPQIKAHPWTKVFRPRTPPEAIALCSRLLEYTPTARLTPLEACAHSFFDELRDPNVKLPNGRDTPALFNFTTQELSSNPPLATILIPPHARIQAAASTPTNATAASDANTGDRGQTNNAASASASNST
SMILES,"% Survival [1, 3] [%]","% Survival [1, 4] [%]","% Survival [1, 5] [%]","% Survival [1, 6]","% Survival [1, 7]","% Survival [1, 8] [%]","neuroprotection against LK-induced neuronal death, in words [1]",protection at doses lower than 1 μM compared with 1 μM [1],inhibition of GSK3β (GSK3β),death of cultured neurons induced by a variety of different apoptotic stimuli (cultured neurons),"toxicity to cultured neurons (cultured neurons; at higher concentrations, Johnson et al., 2005, Chen et al., 2008)",behavioral performance in mice administered with 3-nitropropionic acid [2],striatal degeneration in mice administered with 3-nitropropionic acid [2],"% Survival ([1]; Table 4, 25 μM in LK medium, % of survival in HK control cultures, LK alone 48.16±8.44%, listed as HSB-) [%]","protection against LK-induced neuronal death (FIG. 1) ([1]; 25 μM, 24 h, phase contrast microscopy, DAPI-staining, TUNEL-staining)"
O=C1Nc2ccccc2O/C1=C\c1cc(Br)cc(Br)c1 [ASK-1],75.3 ± 10.56,68.8 ± 12.99,69.1 ± 7.56,75.3 ± 10.56%,68.8 ± 12.99%,69.1 ± 7.56,lack of neuroprotection,,,,,,,,
S=C1Nc2ccccc2OC1=Cc1cccs1 [ASK-8],,60.8 ± 2.62,39.3 ± 7.78,73.3 ± 0.79 %,60.8 ± 2.62%,39.3 ± 7.78,inactive,lower,,,,,,,
CN1C(=S)C(=Cc2ccc[nH]2)Oc2ccccc21 [ASK-9],,70.2 ± 5.32,65.1 ± 5.63,84.5% and 84.5 ± 3.30 %,70.2 ± 5.32%,65.1 ± 5.63,,lower,,,,,,,
COc1ccc(OC)c(C=C2Oc3ccccc3NC2=S)c1 [ASK-11],73.8 ± 2.31,90.7 ± 14.50,74.0 ± 3.59,73.8 ± 2.31%,90.7% and 90.7 ± 14.50 %,74.0 ± 3.59,significant level of protection,,,,,,,,
"O=C1Nc2ccc(I)cc2C1=Cc1cc(Br)c(O)c(Br)c1 [GW5074, 5-Iodo-3-[(3′,5′-dibromo-4′-hydroxyphenyl)methylene]-2-indolinone]",,,,,,,,,inhibits GSK3β weakly,completely inhibits,display toxicity,improves behavioral performance,prevents striatal degeneration,,
CC(=O)Oc1c(Br)cc(/C=C2\Oc3ccc([N+](=O)[O-])cc3NC2=O)cc1Br [HSB-1],58.8 ± 10.31,,63.5 ± 9.34,58.8 ± 10.31%,,63.5 ± 9.34,,,,,,,,,
CC(=O)Oc1c(Br)cc(/C=C2\Oc3ccc(Cl)cc3NC2=O)cc1Br [HSB-2],44.1 ± 23.42,62.3 ± 15.64,,44.1 ± 23.42%,62.3 ± 15.64%,,,,,,,,,,
CC(=O)Oc1c(Br)cc(/C=C2\Oc3ccc(C)cc3NC2=O)cc1Br [HSB-3],56.9 ± 11.54,59.6 ± 11.97,,56.9 ± 11.54%,59.6 ± 11.97%,97.4 ± 12.98,,,,,,,,~97,
Cc1ccc2c(c1)NC(=O)/C(=C/c1ccsc1)O2 [HSB-4],,60.3 ± 4.47,61.0 ± 3.58,65.0 ± 4.34%,60.3 ± 4.47%,61.0 ± 3.58,inactive,lower,,,,,,,
CC(=O)Oc1c(Br)cc(/C=C2\Oc3ccc(F)cc3NC2=O)cc1Br [HSB-5],65.9 ± 5.08,69.3 ± 9.75,,65.9 ± 5.08%,69.3 ± 9.75%,95.6 ± 0.98,,,,,,,,,protective
COc1cc(/C=C2\Oc3ccc(I)cc3NC2=O)cc(OC)c1OC [HSB-6],61.9 ± 9.07,72.1 ± 19.33,59.4 ± 13.11,61.9 ± 9.07%,72.1 ± 19.33%,59.4 ± 13.11,lack of neuroprotection,,,,,,,,
Cc1ccc2c(c1)NC(=O)/C(=C/c1ccccn1)O2 [HSB-7],59.4 ± 13.93,,88.1 ± 2.44,59.4 ± 13.93%,59.8 ± 6.40%,88.1 ± 2.44,,,,,,,,,
CN(C)c1ccc(C=C2Oc3ccccc3NC2=O)cc1 [HSB-9],,68.8 ± 13.54,63.3 ± 1.73,67.3 ± 16.43%,68.8 ± 13.54%,63.3 ± 1.73,,lower,,,,,,,
O=C1Nc2ccccc2OC1=Cc1cccs1 [HSB-11],64.2 ± 12.18,68.8 ± 4.26,68.8 ± 4.49,64.2 ± 12.18%,68.8 ± 4.26%,68.8 ± 4.49,inactive,,,,,,,,
O=C1Nc2ccccc2OC1=Cc1ccsc1 [HSB-12],76.8 ± 5.79,76.2 ± 3.42,81.4 ± 9.45,76.8 ± 5.79 %,76.2 ± 3.42 %,81.4 ± 9.45,inactive,,,,,,,,
COc1cc(C=C2Oc3ccccc3NC2=O)cc(OC)c1OC [HSB-14],63.9 ± 2.26,70.0 ± 1.63,69.2 ± 5.30,63.9 ± 2.26%,70.0 ± 1.63%,69.2 ± 5.30,,,,,,,,,
COc1cc(/C=C2\Oc3ccc(C)cc3NC2=O)cc(OC)c1OC [HSB-15],60.7 ± 2.76,66.5 ± 9.26,63.9 ± 3.32,60.7 ± 2.76%,66.5 ± 9.26%,63.9 ± 3.32,,,,,,,,,
O=C1Nc2ccccc2OC1=Cc1c[nH]c2ccccc12 [HSB-20],52.2 ± 10.11,62.5 ± 3.14,48.3 ± 12.11,52.2 ± 10.11%,62.5 ± 3.14%,48.3 ± 12.11,,,,,,,,,
